As a reminder, the IC50 is the midpoint of a concentration-inhibition curve.

The target in the experiment is cGMP-specific 3',5'-cyclic phosphodiesterase (Homo sapiens, UniProt O76074). As to the kind of experiment: Inhibition of recombinant full length GST-tagged PDE5A1 (unknown origin) expressed in baculovirus infected Sf9 insect cells using TAMRA-cGMP as substrate incubated for 1.5 hrs by IMAP-FP assay.
As for `CCOc1c(F)cc(C2CC(C(C)(C)C)=NN2c2ccc(C(=O)N3CCN(C)CC3)cc2)cc1F` (centres undefined), the IC50 turned out to be 130 nM.
As for `CCCCNC(=O)c1ccc(N2N=C(c3ccccc3)CC2c2ccc(OC)cc2)cc1` (centres undefined), the IC50 was determined as 410 nM.
Take `COc1ccc(C2CC(c3ccccc3O)=NN2c2ccc(C(=O)O)cc2)cc1` (racemic): the IC50 was found to be 330 nM.
For `COc1c(F)cc(C2CC(C(C)(C)C)=NN2c2ccc(C(=O)O)cc2)cc1F` (centres undefined), the IC50 turned out to be 90 nM.
As for `COc1ccc(C2CC(c3ccccc3)=NN2c2ccc(C(=O)O)cc2)cc1F` (centres undefined), the concentration for half-maximal inhibition (IC50) was 1190 nM.
For `COc1ccc(C2CC(c3ccc(O)cc3)=NN2c2ccc(C(=O)O)cc2)cc1` (centres undefined), the IC50 turned out to be 2500 nM.
Turning to `COc1ccc(C2CC(c3ccccc3C)=NN2c2ccc(C(=O)O)cc2)cc1` (centres undefined), the IC50 was 500 nM.
With `COc1ccc(C2CC(C(C)(C)C)=NN2c2ccc(C(=O)O)cc2)cc1Cl` (centres undefined), the IC50 was determined as 900 nM.
As for `COc1cc(C2CC(C(C)(C)C)=NN2c2ccc(C(=O)O)cc2)ccc1F` (centres undefined), the figure is 10100 nM; as for `COc1ccc(C2CC(c3cccc(C)c3)=NN2c2ccc(C(=O)O)cc2)cc1` (centres undefined), 1560 nM.
For the molecule `CCCCNC(=O)c1ccc(N2N=C(c3ccccc3C)CC2c2ccc(OC)cc2)cc1` (centres undefined), the IC50 turned out to be 280 nM.
`CCNC(=O)c1ccc(N2N=C(c3ccccc3)CC2c2ccc(OC)cc2)cc1` (centres undefined): the IC50 came to 600 nM.
With `COc1ccc(C2CC(c3ccccc3)=NN2c2ccc(C(=O)N3CCN(C)CC3)cc2)cc1` (centres undefined) the figure was 78 nM.
As to `COc1ccc(C2C3Cc4ccccc4C3=NN2c2ccc(C(=O)O)cc2)cc1` (centres undefined), the IC50 came out at 1440 nM.
Turning to `CCCCNC(=O)c1ccc(N2N=C(C(C)(C)C)CC2c2ccc(OC)c(F)c2)cc1` (centres undefined), the IC50 was 410 nM.
Regarding `COc1ccc(C2CC(C(C)(C)C)=NN2c2ccc(C(=O)N3CCN(C)CC3)cc2)cc1Cl` (centres undefined), the IC50 was found to be 190 nM.
With `CCOc1c(F)cc(C2CC(C(C)(C)C)=NN2c2ccc(C(=O)O)cc2)cc1F` (centres undefined), the IC50 came to 200 nM.
With `COc1ccc(C2CC(C(C)(C)C)=NN2c2ccc(C(=O)O)cc2)cc1F` (centres undefined) the figure was 590 nM.
Regarding `COc1ccc(C2CC(C(C)(C)C)=NN2c2ccc(C(=O)O)cc2)c(F)c1F` (centres undefined), the IC50 was found to be 60 nM.
Take `COc1ccc(C2C3COc4ccccc4C3=NN2c2ccc(C(=O)O)cc2)cc1` (centres undefined): the IC50 turned out to be 1160 nM.
With `CC(C)(C)C1=NN(c2ccc(C(=O)O)cc2)C(c2ccc(OC(F)(F)F)cc2)C1` (centres undefined) the figure was 10000 nM; with `COc1ccc(C2CC(C(C)(C)C)=NN2c2ccc(C(=O)N3CCN(C)CC3)cc2)cc1F` (centres undefined), 20 nM; with `COc1cc(F)c(C2CC(C(C)(C)C)=NN2c2ccc(C(=O)O)cc2)cc1F` (centres undefined), 10000 nM.
With `COc1cc(F)c(C2CC(C(C)(C)C)=NN2c2ccc(C(=O)N3CCN(C)CC3)cc2)cc1F` (centres undefined) the figure was 260 nM.
For the molecule `CCCCNC(=O)c1ccc(N2N=C(C(C)(C)C)CC2c2ccc(OC)cc2)cc1` (centres undefined), the IC50 came out at 1200 nM.
On to `COc1cc(C2CC(C(C)(C)C)=NN2c2ccc(C(=O)N3CCN(C)CC3)cc2)ccc1F` (centres undefined), for which the IC50 came out at 1290 nM.
As for `COc1ccc(C2CC(c3ccccc3C)=NN2c2ccc(C(=O)O)cc2)cc1F` (centres undefined), the figure is 130 nM.
As for `COc1ccc(C2CC(c3ccccc3C)=NN2c2ccc(C(=O)N3CCOCC3)cc2)cc1` (centres undefined), the figure is 29 nM; as for `COc1ccc(C2CC(C(C)(C)C)=NN2c2ccc(C(=O)N3CCN(C)CC3)cc2)cc1` (centres undefined), 90 nM.
